Measurements from patent US20210317490A1, “ANTICANCER COMPOUNDS” (priority 2017, published 2021).
Converted amounts (≈) assume the structure as drawn.

Experiments:
[1] = system: P-388 murine leukemia cell line; conditions: cited from earlier work; for IC50 against the P-388 murine leukemia cell line: mycalamides, J. Nat. Prod. 2000, 63, 704
[2] = system: PSN-1; experiment: SRB colorimetric cytotoxicity assay, PSN1; assay type: cell-based, human; conditions: for GI50 / CC50: Homo sapiens, PSN1, PSN-1, 72 hours treatment; for GI50: 50% cell growth inhibition; for CC50: 50% net cell killing, read-out: LC50 (the source's name); for TGI: PSN-1, 72 hours treatment, total cell growth inhibition
Text: (§1) The aim of this assay is to evaluate the in vitro cytostatic (ability to delay or arrest tumor cell growth) or cytotoxic (ability to kill tumor cells) activity of the samples being tested.
(§2) A colorimetric assay, using sulforhodamine B (SRB) reaction has been adapted to provide a quantitative measurement of cell growth and viability (following the technique described by Skehan et al. J. Natl. Cancer Inst. 1990, 82, 1107-1112).
(§3) This form of assay employs 96-well cell culture microplates following the standards of the American National Standards Institute and the Society for Laboratory Automation and Screening (ANSI SLAS 1-2004 (R2012) 10/12/2011). All the cell lines used in this study were obtained from the American Type Culture Collection (ATCC) and derive from different types of human cancer.
(§4) Cells were maintained in Dulbecco's Modified Eagle Medium (DMEM) supplemented with 10% Fetal Bovine Serum (FBS), 2mM L-glutamine, 100 U/mL penicillin and 100 U/mL streptomycin at 37 ° C., 5% CO2 and 98% humidity. For the experiments, cells were harvested from subconfluent cultures using trypsinization and resuspended in fresh medium before counting and plating.
(§5) Cells were seeded in 96 well microtiter plates, at 5000 cells per well in aliquots of 150 μL and allowed to attach to the plate surface for 18 hours (overnight) in drug free medium. After that, one control (untreated) plate of each cell line was fixed (as described below) and used for time zero reference value. Culture plates were then treated with test compounds (50 μL aliquots of 4× stock solutions in complete culture medium plus 4% DMSO) using ten 2/5 serial dilutions (concentrations ranging from 10 to 0.003 μg/mL) and triplicate cultures (1% final concentration in DMSO). After 72 hours treatment, the antitumor effect was measured by using the SRB methodology: Briefly, cells were washed twice with PBS, fixed for 15 min in 1% glutaraldehyde solution at room temperature, rinsed twice in PBS, and stained in 0.4% SRB solution for 30 min at room temperature. Cells were then rinsed several times with 1% acetic acid solution and air-dried at room temperature. SRB was then extracted in 10 mM trizma base solution and the absorbance measured in an automated spectrophotometric plate reader at 490 nm. Effects on cell growth and survival were estimated by applying the NCI algorithm (Boyd M R and Paull K D. Drug Dev. Res. 1995, 34, 91-104).
(§6) The values obtained in triplicate cultures were fitted to a four-parameter logistic curve by nonlinear regression analysis. Three reference parameters were calculated (according to the NCI algorithm) by automatic interpolation of the curves obtained from such fitting: GI50=compound concentration that produces 50% cell growth inhibition, as compared to control cultures; TGI=total cell growth inhibition (cytostatic effect), as compared to control cultures, and LC50=compound concentration that produces 50% net cell killing cytotoxic effect).

[3] = system: HT29; experiment: SRB colorimetric cytotoxicity assay, HT29; assay type: cell-based, human; conditions: for TGI: HT29, 72 hours treatment, total cell growth inhibition; for GI50 / CC50: Homo sapiens, HT-29, HT29, 72 hours treatment; for GI50: 50% cell growth inhibition; for CC50: 50% net cell killing, read-out: LC50 (the source's name)
Text: as §1, §2, §3, §4, §5, §6

[4] = system: A549; experiment: SRB colorimetric cytotoxicity assay, A549; assay type: cell-based, human; conditions: A549, 72 hours treatment; for TGI: total cell growth inhibition; for GI50 / CC50: Homo sapiens; for GI50: 50% cell growth inhibition; for CC50: 50% net cell killing, read-out: LC50 (the source's name)
Text: as §1, §2, §3, §4, §5, §6

[5] = system: MDA-MB-231; experiment: SRB colorimetric cytotoxicity assay, MDA-MB-231; assay type: cell-based, human; conditions: MDA-MB-231, 72 hours treatment; for GI50 / LC50 (concentration giving 50% net cell killing): Homo sapiens; for GI50: 50% cell growth inhibition; for TGI: total cell growth inhibition
Text: as §1, §2, §3, §4, §5, §6

[6] = toxicity lower than pederin; cited from earlier work
[7] = system: B104 cells; conditions: cited from earlier work
[8] = system: HeLa cells; conditions: cited from earlier work
[9] = system: EUE, E6D, HeLa, KB, Hep, AS, MEF, CE, BHK, Z1 and M1 cell lines; conditions: within four days, in all the cell lines analyzed; cited from earlier work

## C=C1C[C@](OC)([C@H](O)C(=O)NC[C@@H]2C[C@H](O)C(C)(C)[C@@H](C[C@H](O)CCC/C=C/C=C/C=C/C(=O)N[C@@H](CCCNC(=N)N)C(=O)O)O2)O[C@H](C)[C@@H]1C [Onnamide E]
[1]; at a concentration of 0.4 μg/mL
  cytotoxic activity against the P388 cell line: did not show cytotoxic activity

## C=C1CC(OC)(C(O)C(=O)NC(OC)C2CC(O)C(C)(C)C(CC(O)CO)O2)OC(C)C1C (stereo not shown) [Compound 2]
[2]
  GI50: 8.62 nM
  CC50: 77.8 nM
  TGI: 19.1 nM
[3]
  TGI: 44.2 nM
  GI50: 8.83 nM
  CC50: > 2100 nM
[4]
  TGI: 25.2 nM
  GI50: 7.15 nM
  CC50: 122 nM
[5]
  GI50: 8.2 nM
  LC50 (concentration giving 50% net cell killing): 31.5 nM
  TGI: 15.6 nM

## C=C1C[C@](OC)([C@H](O)C(=O)N[C@H]2OCO[C@H]3[C@@H]2O[C@H](C[C@H](O)CO)C(C)(C)[C@@H]3OC)O[C@H](C)[C@@H]1C [Mycalamide A]
[1]
  IC50 against the P-388 murine leukemia cell line: 3.0 ng/mL (≈ 5.96 nM)

## C=C1CC(OC)(C(O)C(=O)NC(OC)C2CC(O)C(C)(C)C(CC(CO)OC)O2)OC(C)C1C (stereo not shown) [Compound 1]
[2]
  GI50: 2.66 nM
  CC50: 19.4 nM
  TGI: 5.72 nM
[3]
  TGI: 8.99 nM
  GI50: 2.86 nM
  CC50: > 204 nM
[4]
  TGI: 7.97 nM
  GI50: 2.04 nM
  CC50: 36.8 nM
[5]
  GI50: 2.66 nM
  LC50 (concentration giving 50% net cell killing): 10.8 nM
  TGI: 5.31 nM

## C=C1C[C@](O)([C@H](O)C(=O)N[C@@H](OC)[C@@H]2C[C@@H](O)C(C)(C)[C@@H](C[C@@H](COC)OC)O2)O[C@H](C)[C@@H]1C [Pseudopederin, pseudopederin]
[6]
  active dose relative to pederin: 10 times higher

## C=C1C[C@](OC)([C@H](O)C(=O)N[C@H]2OCO[C@H]3[C@@H]2O[C@H](CC(CO)OC)C(C)(C)[C@@H]3OC)O[C@H](C)[C@@H]1C (stereo partly shown) [Mycalamide B]
[1]
  IC50 against the P-388 murine leukemia cell line: 0.7 ng/mL (≈ 1.35 nM)

## C=C1C[C@](OC)([C@H](O)C(=O)N[C@H]2OCO[C@H]3[C@@H]2O[C@H](C[C@H](O)CCC/C=C/C=C/C=C/C(=O)N[C@@H](CCCNC(=N)N)C(=O)O)C(C)(C)[C@@H]3OC)O[C@H](C)[C@@H]1C [Onnamide A]
[1]; U.S. Pat. No. 4,801,606
  IC50 against the murine P388 cell line: 1 ng/mL (≈ 1.26 nM)

## C=C1C[C@](OC)([C@H](O)C(=O)N[C@@H](O)[C@@H]2C[C@@H](O)C(C)(C)[C@@H](C[C@H](O)CO)O2)O[C@H](C)[C@@H]1C [diaphorin]
[7]
  IC50: ~1000 nM
[8]
  IC50: ~2000 nM

## C=C1C[C@](OC)([C@H](O)C(=O)N[C@@H](OC)[C@@H]2C[C@@H](O)C(C)(C)[C@@H](CC(COC)OC)O2)O[C@H](C)[C@@H]1C (stereo partly shown) [pederin]
[9]
  concentration sufficient to cause cellular death: ~3 nM

## C=C1C[C@](OC)([C@H](O)C(=O)NC[C@H]2O[C@H](CO)C(C)(C)[C@H](O)[C@H]2O)O[C@H](C)[C@@H]1C [Mycalamide C]
[1]
  IC50 against the P-388 murine leukemia cell line: 95.0 ng/mL (≈ 228 nM)

## C=C1C[C@](OC)([C@H](O)C(=O)N[C@H]2OCO[C@H]3[C@@H]2O[C@H](C[C@H](O)CO)C(C)(C)[C@@H]3O)O[C@H](C)[C@@H]1C [Mycalamide D]
[1]
  IC50 against the P-388 murine leukemia cell line: 35 ng/mL (≈ 71.5 nM)

## C=C1CC(OC)(C(OC(C)=O)C(=O)NC(OC)C2CC(OC(C)=O)C(C)(C)C(CC(COC(C)=O)OC)O2)OC(C)C1C (stereo not shown) [Compound 3]
[2]
  GI50: 162 nM
  CC50: 3900 nM
  TGI: 666 nM
[3]
  TGI: 926 nM
  GI50: 162 nM
  CC50: > 16200 nM
[4]
  TGI: 877 nM
  GI50: 115 nM
  CC50: 8610 nM
[5]
  GI50: 309 nM
  LC50 (concentration giving 50% net cell killing): > 16200 nM
  TGI: 2440 nM
